Laboratory results taken from patent US4017611A, “Control of insects with 3-hydroxymethacrylic acid methyl ester dimethylthionophosphate” (priority 1970, dated 1977).
Where two headings read alike, the source gives them in different places.

Experiments:
[1] = system: Sitophilus granarius; experiment: Durability (disinfection) test on wheat, grain weevil; format: in vivo; conditions: 168 h, read-out: % animals dead after one week exposure
Excerpt: (§1) Wheat was shaken up with 5% dusting agent and then mixed again repeatedly with untreated wheat at half the poison concentration. In this way, a dilution series with concentrations of 50 - 25 - 12 - 6 - 3 - 1.5 ppm was obtained.
(§2) Since the test is repeated once per month, the desired information is obtained concerning the residual effect. In the test, the important pests in storage protection were chosen, viz, the grain weevil (Sitophilus granarius) - lesser grain borer (Rhizopertha dominica) and the larvae of the Khapra beetle (Trogoderma granarium), which are very resistant to insecticides. 20 test insects were tested per concentration and the results are expressed in the following table.

[2] = system: Rhizopertha dominica; experiment: Durability (disinfection) test on wheat, lesser grain borer; format: in vivo; conditions: Rhyzopertha dominica, 168 h, read-out: % animals dead after one week exposure
Excerpt: as §1, §2

[3] = system: Trogoderma granarium (L); experiment: Durability (disinfection) test on wheat, larvae of the Khapra beetle; format: in vivo; conditions: 168 h, read-out: % animals dead after one week exposure
Excerpt: as §1, §2

[4] = system: Sit. Granarius; experiment: Diffusion action in wheat (gas phase between wheat grains); format: in vivo; conditions: Sitophilus granarius, 168 h, 50 ppm treated wheat layer, read-out: Mortality in % after 7 days exposure time
Excerpt: A plexiglass box was divided by means of wire grids into ten vertical layers each 1 cm thick. Each compartment was filled with wheat grains. The first compartment contained wheat grains which had been treated with 50 ppm active agent (5% dusting agent). The remainder of the compartment contained untreated wheat. All the compartments were then supplied with grain weevils. The mortality was noted after 7 days exposure time and the results are expressed in the following table. Diffusion of active substance in gas phase between the wheat grains

[5] = Acute oral toxicity (warm blooded toxicity) in rats; conditions: rat, in vivo, po

## COP(=O)(OC)OC=C(Cl)Cl [DDVP, dimethyldichlorvinylphosphate, reference compound]
[1]; wheat fresh
  mortality at 1.5 ppm: 100%
  mortality at 3 ppm: 100%
  mortality at 6 ppm: 100%
  mortality at 12 ppm: 100%
  mortality at 25 ppm: 100%
  mortality at 50 ppm: 100%
[1]; wheat stored 1 month
  mortality at 1.5 ppm: 0%
  mortality at 3 ppm: 5%
  mortality at 6 ppm: 25%
  mortality at 12 ppm: 100%
  mortality at 25 ppm: 100%
  mortality at 50 ppm: 100%
[1]; wheat stored 2 months
  mortality at 1.5 ppm: 0%
  mortality at 3 ppm: 0%
  mortality at 6 ppm: 0%
  mortality at 12 ppm: 55%
  mortality at 25 ppm: 100%
  mortality at 50 ppm: 100%
[1]; wheat stored 3 months
  mortality at 1.5 ppm: 0%
  mortality at 3 ppm: 0%
  mortality at 6 ppm: 0%
  mortality at 12 ppm: 0%
  mortality at 25 ppm: 50%
  mortality at 50 ppm: 99%
[2]; wheat fresh
  mortality at 1.5 ppm: 95%
  mortality at 3 ppm: 100%
  mortality at 6 ppm: 100%
  mortality at 12 ppm: 100%
  mortality at 25 ppm: 100%
  mortality at 50 ppm: 100%
[2]; wheat stored 1 month
  mortality at 1.5 ppm: 0%
  mortality at 3 ppm: 5%
  mortality at 6 ppm: 10%
  mortality at 12 ppm: 15%
  mortality at 25 ppm: 65%
  mortality at 50 ppm: 100%
[2]; wheat stored 2 months
  mortality at 1.5 ppm: 5%
  mortality at 3 ppm: 0%
  mortality at 6 ppm: 5%
  mortality at 12 ppm: 20%
  mortality at 25 ppm: 40%
  mortality at 50 ppm: 95%
[2]; wheat stored 3 months
  mortality at 1.5 ppm: 0%
  mortality at 3 ppm: 0%
  mortality at 6 ppm: 0%
  mortality at 12 ppm: 0%
  mortality at 25 ppm: 15%
  mortality at 50 ppm: 80%
[3]; wheat fresh
  mortality at 1.5 ppm: 85%
  mortality at 3 ppm: 100%
  mortality at 6 ppm: 100%
  mortality at 12 ppm: 100%
  mortality at 25 ppm: 100%
  mortality at 50 ppm: 100%
[3]; wheat stored 1 month
  mortality at 1.5 ppm: 0%
  mortality at 3 ppm: 0%
  mortality at 6 ppm: 0%
  mortality at 12 ppm: 5%
  mortality at 25 ppm: 75%
  mortality at 50 ppm: 100%
[3]; wheat stored 2 months
  mortality at 1.5 ppm: 0%
  mortality at 3 ppm: 0%
  mortality at 6 ppm: 0%
  mortality at 12 ppm: 0%
  mortality at 25 ppm: 10%
  mortality at 50 ppm: 45%
[3]; wheat stored 3 months
  mortality at 1.5 ppm: 0%
  mortality at 3 ppm: 0%
  mortality at 6 ppm: 0%
  mortality at 12 ppm: 0%
  mortality at 25 ppm: 0%
  mortality at 50 ppm: 0%
[4]; distance 1 cm
  mortality at 50 ppm: 100%
[4]; distance 2 cm
  mortality at 50 ppm: 100%
[4]; distance 3 cm
  mortality at 50 ppm: 80%
[4]; distance 4 cm
  mortality at 50 ppm: 0%
[4]; distance 5 cm
  mortality at 50 ppm: 0%
[4]; distance 6 cm
  mortality at 50 ppm: 0%
[5]
  LD50: 50 mg/kg
